Laboratory results published in patent publication US20230372481A1 (priority 2020, published 2023).

Columns and labels:
[1] = system: PBMCs of COVID-19 convalescent donors; experiment: Proliferation assay with CFSE in the presence of dexamethasone; type: cell-based, human; settings: dexamethasone 10-7-10-6 M
Protocol: Around 2 million cells where incubated in a P24 plaque in 1 ml of supplemented medium with 1.5% v/v PHA (Phytohemagglutinin M form. Ref. 10576015), Mouse Anti-Human CD3 (Clone OKT3; BD Biosciences, Ref: 566685; final concentration of 0.05 μg/ml) and CD28/CD49d Purified (Clone L293 L25 RUO GMP) (BD Biosciences. Ref. 347690; final concentration 5 μg/ml).
The cells where incubated at 37° C. for 3 days and finally a CFSE proliferation assay (CellTrace™ CFSE Cell Proliferation Kit, Invitrogen, Ref.) was performed to determine if high doses of the drug decrease the division index of the cells. The cells were stained with CFSE and the different cell surface antibodies. Then, cell acquisition was performed using a Navios cytometer (Beckman Coulter), acquiring an average of 200,000 cells. The analysis was made using FlowJo 10.7.1 (FlowJoLLC). N=4 mean of the results was performed.

[2] = system: PBMCs of COVID-19 convalescent donors; experiment: Secretion of IFNγ in the presence of dexamethasone with peptivators for SARS-COV-2; type: cell-based, human; settings: three SARS-CoV-2 peptides
Protocol: Then they were mixed with PepTivators for SARS-CoV2 (Miltenyi Biotec. PepTivator Prot_M, Ref. 130-126-702; PepTivator Prot_N, Ref. 130-126-698 & PepTivator Prot_S, Ref. 130-126-700. Final concentration of 0.6 nmol/ml) for 5 hours at 37° C.; then IFNγ production of T cells were measured as before using the Miltenyi Biotec IFNg Detection Kit, Ref: 130-054-202. In all cases there was a basal condition, without peptivators and the cells where previously incubated with mouse Anti-Human CD3 (Clone OKT3; BD Biosciences, Ref:
566685; final concentration of 2.8 μg/ml and CD28/CD49d Purified (Clone L293 L25 RUO GMP) (BD Biosciences. Ref. 347690; final concentration 5 μg/ml). Cell acquisition was performed using a Navios cytometer (Beckman Coulter), acquiring an average of 200,000 cells. The analysis was made using FlowJo 10.7.1 (FlowJoLLC). N=3, mean of the results was performed.

[3] = DEX 10^-7M, 72 hours (D3), listed as dexamethasone

Compound: C[C@@H]1C[C@H]2[C@@H]3CCC4=CC(=O)C=C[C@]4(C)[C@@]3(F)[C@@H](O)C[C@]2(C)[C@@]1(O)C(=O)CO [DEX, dexamethasone]
- Reduction of proliferation within the CD45RA− memory T cells [1]: 0-5%
- Percentage of IFNg, CD45RA+ ([2]; DEX 10^-6M, 24 hours (D1)): 0.00%
- Percentage of IFNg, CD45RA+CD3+ ([2]; DEX 10^-6M, 24 hours (D1)): 0.00%
- Percentage of IFNg, CD45RA+CD3+CD4+ ([2]; DEX 10^-6M, 24 hours (D1)): 0.32%
- Percentage of IFNg, CD45RA+CD3+CD8+ ([2]; DEX 10^-6M, 24 hours (D1)): 0.00%
- Percentage of IFNg, CD45RA− ([2]; DEX 10^-6M, 24 hours (D1)): 2.0%
- Percentage of IFNg, CD45RA− CD3+ ([2]; DEX 10^-6M, 24 hours (D1)): 0.7%
- Percentage of IFNg, CD45RA− CD3+CD4+ ([2]; DEX 10^-6M, 24 hours (D1)): 1.1%
- Percentage of IFNg, CD45RA− CD3+CD8+ ([2]; DEX 10^-6M, 24 hours (D1)): 0.1%
- Percentage of IFNg, CD45RA+ ([2]; DEX 10^-6M, 72 hours (D3)): 0.61%
- Percentage of IFNg, CD45RA+CD3+ ([2]; DEX 10^-6M, 72 hours (D3)): 1.06%
- Percentage of IFNg, CD45RA+CD3+CD4+ ([2]; DEX 10^-6M, 72 hours (D3)): 1.43%
- Percentage of IFNg, CD45RA+CD3+CD8+ ([2]; DEX 10^-6M, 72 hours (D3)): 1.29%
- Percentage of IFNg, CD45RA− ([2]; DEX 10^-6M, 72 hours (D3)): 2.68%
- Percentage of IFNg, CD45RA− CD3+ ([2]; DEX 10^-6M, 72 hours (D3)): 3.27%
- Percentage of IFNg, CD45RA− CD3+CD4+ ([2]; DEX 10^-6M, 72 hours (D3)): 3.04%
- Percentage of IFNg, CD45RA− CD3+CD8+ ([2]; DEX 10^-6M, 72 hours (D3)): 4.50%
- Percentage of IFNg, CD45RA+ ([2]; DEX 10^-7M, 24 hours (D1)): 0.27%
- Percentage of IFNg, CD45RA+CD3+ ([2]; DEX 10^-7M, 24 hours (D1)): 0.40%
- Percentage of IFNg, CD45RA+CD3+CD4+ ([2]; DEX 10^-7M, 24 hours (D1)): 0.11%
- Percentage of IFNg, CD45RA+CD3+CD8+ ([2]; DEX 10^-7M, 24 hours (D1)): 1.77%
- Percentage of IFNg, CD45RA− ([2]; DEX 10^-7M, 24 hours (D1)): 5.9%
- Percentage of IFNg, CD45RA− CD3+ ([2]; DEX 10^-7M, 24 hours (D1)): 1.7%
- Percentage of IFNg, CD45RA− CD3+CD4+ ([2]; DEX 10^-7M, 24 hours (D1)): 2.4%
- Percentage of IFNg, CD45RA− CD3+CD8+ ([2]; DEX 10^-7M, 24 hours (D1)): 2.6%
- Percentage of IFNg, CD45RA+ ([2]; DEX 10^-7M, 72 hours (D3)): 2.08%
- Percentage of IFNg, CD45RA+CD3+ ([2]; DEX 10^-7M, 72 hours (D3)): 5.12%
- Percentage of IFNg, CD45RA+CD3+CD4+ ([2]; DEX 10^-7M, 72 hours (D3)): 3.29%
- Percentage of IFNg, CD45RA+CD3+CD8+ ([2]; DEX 10^-7M, 72 hours (D3)): 3.91%
- Percentage of IFNg, CD45RA− ([2]; DEX 10^-7M, 72 hours (D3)): 7.21%
- Percentage of IFNg, CD45RA− CD3+ ([2]; DEX 10^-7M, 72 hours (D3)): 8.03%
- Percentage of IFNg, CD45RA− CD3+CD4+ ([2]; DEX 10^-7M, 72 hours (D3)): 7.06%
- Percentage of IFNg, CD45RA− CD3+CD8+ ([2]; DEX 10^-7M, 72 hours (D3)): 8.67%
- Percentage of IFNg, CD45RA− [2, 3]: 2.08%
- Percentage of IFNg, CD45RA− CD3+ [2, 3]: 5.12%
- Percentage of IFNg, CD45RA− CD3+CD4+ [2, 3]: 3.29%
- Percentage of IFNg, CD45RA− CD3+CD8+ [2, 3]: 3.91%
